These are literature values, as cited in patent EP0358033B1, “Radical polymerizable compositions and their use” (Henkel Kommanditgesellschaft auf Aktien, priority 1988, dated 1990).

Molecules are shown by their SMILES.

The conditions of the series: free acid.
With `O=C(O)C(Cl)Cl` [Dichloressigsäure], the pKS-Wert was ~1,3.

Consider `CC(=O)O` [Essigsäure], for which the pKS-Wert is listed as ~4,76.

`O=C(O)C(Cl)(Cl)Cl` [Trichloressigsäure]: the pKS-Wert is on record as ~0,6.
